Results from patent US20260053837A1, “NICOTINAMIDE-RIBOSIDE AND PTEROSTILBENE COMBINATIONS TO TREAT OSTEOARTHRITIS” (The Regents of the University of California, priority 2022, published 2026).

What was measured:
[1] = cited from earlier work
injury-induced OA model = assay: pain behavior in injury-induced OA model (DMM surgery; Von Frey test, static weight bearing); format: in vivo, mice; conditions: NR 400 mg/kg/day, PT 80 mg/kg/day
Protocol: In vivo studies were designed to determine if oral supplementation of NR+PT (5:1) with NR at 400 mg/kg/day (the commonly used dose in animal studies) and PT at 80 mg/kg/day is better than NR alone (400 mg/kg/day) or PT alone (80 mg/kg/day), in limiting cartilage degradation and reducing pain in an injury-induced OA model. […] Because synergistic or additive effect of NR+PT combination was not initially observed, in vitro studies tested the combination of NR and PT at different ratio (NR:PT, 1:1, 2:1, 4:1, 6:1) and different concentrations (based on PT concentration at 25, 50 and 100 uM) on chondrocyte response to IL-1beta. Because IL-1b is known to induce nitric oxide (NO) production in chondrocytes, NO release (measured from the conditioned media) was used as a readout. It was determined that NR+PT at 2:1 ratio had the best efficacy in inhibition of IL-1b induced NO release, particularly for NR at 0.1 mM and PT at 0.05 mM. […] See, FIGS. 1 and 2. C57BL/6J mice at 12 weeks of age were subjected to joint injury via destabilization of medial meniscus (DMM) surgery through transection of meniscotibial ligament. Sham surgery (just skin incision) was performed on separate group of mice. […] Pain-like behaviors was evaluated at baseline (1 weeks before the surgery) and 2, 4, 6, 8 and 10 weeks after DMM surgery. • 1. […]

NC(=O)c1ccc[n+]([C@@H]2O[C@H](CO)[C@@H](O)[C@H]2O)c1 [NR, nicotinamide riboside]
reduction of conversion of NR to NAM ([1]; germ-free mice after oral intake): 3 fold
stability of NR in gut and circulation ([1]; mouse, in vivo): rapidly degraded to NAM
efficacy on pain, comparison among treatment groups (injury-induced OA model; NR+PT 5:1, gavage daily): slightly better efficacy
pain compared to the non-treated controls (injury-induced OA model; NR+PT 5:1, gavage daily after DMM surgery): significantly less pain
